Results reported in patent US9770023B2, “Active compound combinations comprising phenylamidine compounds and further fungicides” (BAYER CROPSCIENCE AKTIENGESELLSCHAFT, priority 2014, dated 2017).

Tests used:
Septoria tritici = assay: in vivo preventive Septoria tritici test (wheat)
Protocol: (§1) [table] To produce a suitable preparation of active compound, 1 part by weight of active compound or active compound combination is mixed with the stated amounts of solvent and emulsifier, and the concentrate is diluted with water to the desired concentration. To test for preventive activity, young plants are sprayed with the preparation of active compound or active compound combination at the stated rate of application. After the spray coating has been dried, the plants are sprayed with a spore suspension of Septoria tritici. The plants remain for 48 hours in an incubation cabinet at approximately 20° C. and a relative atmospheric humidity of approximately 100% and afterwards for 60 hours at approximately 15° C. in a translucent incubation cabinet at a relative atmospheric humidity of approximately 100%. The plants are placed in the greenhouse at a temperature of approximately 15° C. and a relative atmospheric humidity of approximately 80%. The test is evaluated 21 days after the inoculation. 0% means an efficacy which corresponds to that of the untreated control, while an efficacy of 100% means that no disease is observed.

Pyrenophora teres = assay: in vivo preventive Pyrenophora teres test (barley); details: Table F1, 8 days after inoculation
Protocol: as §1, with “Pyrenophora teres.” for “Septoria tritici.”, “approximately” for “approximately 100% and afterwards for 60 hours at approximately 15° C. in a translucent incubation cabinet at a relative atmospheric humidity of approximately”, “20°” for “15°”, “8” for “21”

Alternaria solani = assay: in vivo preventive test on Alternaria test (tomatoes)
Protocol: [table] To produce a suitable preparation of active compound, 1 part by weight of active compound is mixed with the stated amounts of solvent and emulsifier, and the concentrate is diluted with water to the desired concentration. To test for preventive activity, young plants are sprayed with the preparation of active compound at the stated rate of application. After the spray coating has dried on, the plants are inoculated with an aqueous spore suspension of Alternaria solani. The plants are then placed in an incubation cabinet at approximately 20° C. and a relative atmospheric humidity of 100%. The test is evaluated 3 days after the inoculation. 0% means an efficacy which corresponds to that of the untreated control while an efficacy of 100% means that no disease is observed.

[1] = system: Blumeria graminis f.sp. hordei; assay: in vivo preventive Blumeria test (barley)
Protocol: [table] To produce a suitable preparation of active compound, 1 part by weight of active compound or active compound combination is mixed with the stated amounts of solvent and emulsifier, and the concentrate is diluted with water to the desired concentration. To test for preventive activity, young plants are sprayed with the preparation of active compound or active compound combination at the stated rate of application. After the spray coating has been dried, the plants are dusted with spores of Blumeria graminis f.sp. hordei. The plants are placed in the greenhouse at a temperature of approximately 18° C. and a relative atmospheric humidity of approximately 80% to promote the development of mildew pustules. The test is evaluated 7 days after the inoculation. 0% means an efficacy which corresponds to that of the untreated control, while an efficacy of 100% means that no disease is observed.

Puccinia triticina = assay: in vivo preventive Puccinia triticina test (wheat); details: Table E1, 8 days after inoculation
Protocol: To produce a suitable preparation of active compound, 1 part by weight of active compound or active compound combination is mixed with the stated amounts of solvent and emulsifier, and the concentrate is diluted with water to the desired concentration.
To test for preventive activity, young plants are sprayed with the preparation of active compound or active compound combination at the stated rate of application. After the spray coating has been dried, the plants are sprayed with a spore suspension of Puccinia triticina. The plants remain for 48 hours in an incubation cabinet at approximately 20° C. and a relative atmospheric humidity of approximately 100%. The plants are placed in the greenhouse at a temperature of approximately 20° C. and a relative atmospheric humidity of approximately 80%.
The test is evaluated 8 days after the inoculation. 0% means an efficacy which corresponds to that of the untreated control, while an efficacy of 100% means that no disease is observed.

Phakopsora pachyrhizi = assay: in vivo preventive test on Phakopsora test (soybeans)
Protocol: To produce a suitable preparation of active compound, 1 part by weight of active compound is mixed with the stated amounts of solvent and emulsifier, and the concentrate is diluted with water to the desired concentration. To test for preventive activity, young plants are sprayed with the preparation of active compound at the stated rate of application. After the spray coating has dried on, the plants are inoculated with an aqueous spore suspension of the causal agent of soybean rust (Phakopsora pachyrhizi) and stay for 24 h without light in an incubation cabinet at approximately 24° C. and a relative atmospheric humidity of 95%. The plants remain in the incubation cabinet at approximately 24° C. and a relative atmospheric humidity of approximately 80% and a day/night interval of 12 h.
The test is evaluated 7 days after the inoculation. 0% means an efficacy which corresponds to that of the untreated control, while an efficacy of 100% means that no disease is observed.

Leptosphaeria nodorum = assay: in vivo preventive Leptosphaeria nodorum test (wheat); details: Table C1, 8 days after inoculation
Protocol: as §1, with “Leptosphaeria nodorum.” for “Septoria tritici.”, “approximately” for “approximately 100% and afterwards for 60 hours at approximately 15° C. in a translucent incubation cabinet at a relative atmospheric humidity of approximately”, “25°” for “15°”, “8” for “21”

[2] = Table G2, 21 days after inoculation, 40 ppm a.i.
[3] = Table B1, 7 days after inoculation, 40 ppm a.i.
[4] = Table D2, 7 days after inoculation, 0.5 ppm a.i.
[5] = Table D2, 7 days after inoculation, 1 ppm a.i.
[6] = Table G1, 21 days after inoculation, 20 ppm a.i.
[7] = Table A2, 3 days after inoculation, 2 ppm a.i.
[8] = Table A2, 3 days after inoculation, 4 ppm a.i.
[9] = Table B2, 7 days after inoculation, 10 ppm a.i.
[10] = Table B2, 7 days after inoculation, 40 ppm a.i.
[11] = Table D3, 7 days after inoculation, 2 ppm a.i.
[12] = Table A1, 3 days after inoculation, 1 ppm a.i.
[13] = Table D1, 7 days after inoculation, 0.1 ppm a.i.
[14] = Table D1, 7 days after inoculation, 0.2 ppm a.i.
[15] = Table D3, 7 days after inoculation, 10 ppm a.i.

In the case of `Cn1cc(C(=O)Nc2cccc3c2[C@@H]2CC[C@H]3C2=C(Cl)Cl)c(C(F)F)n1` (racemic) [(B.6), benzovindiflupyr], the “Efficacy in % found” value (Septoria tritici; [2]) is reported as 38%, the “Efficacy in % found” value (Pyrenophora teres; 80 ppm a.i.) is reported as 57% and the “Efficacy in % found” value (Alternaria solani; Table A2, 3 days after inoculation, 0.5 ppm a.i.) is reported as 22%. For the same compound, the “Efficacy in % found” value [1, 3] was 11%, the “Efficacy in % found” value (Puccinia triticina; 40 ppm a.i.) was 86% and the “Efficacy in % found” value (Phakopsora pachyrhizi; Table D2, 7 days after inoculation, 0.25 ppm a.i.) was 8%. For the same compound, the “Efficacy in % found” value (Phakopsora pachyrhizi; [4]) was 8% and the “Efficacy in % found” value (Phakopsora pachyrhizi; [5]) was 15%.

With `OC(Cc1ccccc1Cl)(Cn1nc[nH]c1=S)C1(Cl)CC1` (centres unmarked) [(A.3), prothioconazole] the “Efficacy in % found” value (Septoria tritici; [6]) was 0%, the “Efficacy in % found” value (Alternaria solani; [7]) was 0% and the “Efficacy in % found” value (Alternaria solani; [8]) was 24%. For the same compound, the “Efficacy in % found” value [1, 9] was 22%, the “Efficacy in % found” value [1, 10] was 22% and the “Efficacy in % found” value (Phakopsora pachyrhizi; Table D3, 7 days after inoculation, 1 ppm a.i.) was 0%. The “Efficacy in % found” value (Phakopsora pachyrhizi; [11]) was 35%.

`CC(C)(C)C(O)(CCc1ccc(Cl)cc1)Cn1cncn1` (centres unmarked) [(A.4), tebuconazole] was tested, and the “Efficacy in % found” value (Alternaria solani; [12]) was 0%, the “Efficacy in % found” value (Phakopsora pachyrhizi; [13]) was 0% and the “Efficacy in % found” value (Phakopsora pachyrhizi; [14]) was 30%.

`Cn1cc(C(=O)Nc2ccc(F)cc2-c2ccc(Cl)c(Cl)c2)c(C(F)F)n1` [(B.1), bixafen] was tested, and the “Efficacy in % found” value (Septoria tritici; [2]) was 0%, the “Efficacy in % found” value (Alternaria solani; [12]) was 40% and the “Efficacy in % found” value [1, 10] was 0%. The “Efficacy in % found” value (Leptosphaeria nodorum; 80 ppm a.i.) was 0%, the “Efficacy in % found” value (Phakopsora pachyrhizi; Table D1, 7 days after inoculation, 10 ppm a.i.) was 0% and the “Efficacy in % found” value (Phakopsora pachyrhizi; [15]) was 0%.

In the case of `O=C(NCCc1ncc(C(F)(F)F)cc1Cl)c1ccccc1C(F)(F)F` [(B.2), fluopyram], the “Efficacy in % found” value (Alternaria solani; [7]) is reported as 30% and the “Efficacy in % found” value [1, 10] is reported as 11%.

In the case of `Cn1cc(C(=O)Nc2ccccc2-c2cc(F)c(F)c(F)c2)c(C(F)F)n1` [(B.3), fluxapyroxad], the “Efficacy in % found” value (Septoria tritici; [2]) is reported as 13% and the “Efficacy in % found” value (Leptosphaeria nodorum; 40 ppm a.i.) is reported as 14%.

`CC(C)c1ccc(Cl)cc1CN(C(=O)c1c(C(F)F)nn(C)c1F)C1CC1` [(B.8), N-(5-chloro-2-isopropylbenzyl)-N-cyclopropyl-3-(difluoromethyl)-5-fluoro-1-methyl-1H-pyrazole-4-carboxamide] was tested, and the “Efficacy in % found” value (Septoria tritici; [6]) was 29%, the “Efficacy in % found” value (Alternaria solani; [12]) was 45% and the “Efficacy in % found” value (Leptosphaeria nodorum; 20 ppm a.i.) was 0%. The “Efficacy in % found” value (Phakopsora pachyrhizi; Table D1, 7 days after inoculation, 20 ppm a.i.) was 0% and the “Efficacy in % found” value (Phakopsora pachyrhizi; [15]) was 0%.

For `CO/C=C(/C(=O)OC)c1ccccc1Oc1cc(Oc2ccccc2C#N)ncn1` [(C.1), azoxystrobin], the “Efficacy in % found” value (Septoria tritici; Table G2, 21 days after inoculation, 10 ppm a.i.) was 0%, the “Efficacy in % found” value (Pyrenophora teres; 20 ppm a.i.) was 71% and the “Efficacy in % found” value (Alternaria solani; Table A2, 3 days after inoculation, 1 ppm a.i.) was 46%. The “Efficacy in % found” value (Puccinia triticina; 10 ppm a.i.) was 71%, the “Efficacy in % found” value (Phakopsora pachyrhizi; [4]) was 20% and the “Efficacy in % found” value (Phakopsora pachyrhizi; [5]) was 68%. The “Efficacy in % found” value (Phakopsora pachyrhizi; Table D3, 7 days after inoculation, 0.5 ppm a.i.) was 23%.

`CO/C=C(/C(=O)OC)c1ccccc1COc1cccc(C(F)(F)F)n1` [(C.2), picoxystrobin] was tested, and the “Efficacy in % found” value ([1]; Table B1, 7 days after inoculation, 20 ppm a.i.) was 44% and the “Efficacy in % found” value (Phakopsora pachyrhizi; Table D2, 7 days after inoculation, 2 ppm a.i.) was 30%.

For `COC(=O)N(OC)c1ccccc1COc1ccn(-c2ccc(Cl)cc2)n1` [(C.3), pyraclostrobin], the “Efficacy in % found” value (Septoria tritici; [2]) was 88% and the “Efficacy in % found” value (Leptosphaeria nodorum; 40 ppm a.i.) was 57%.

In the case of `CON=C(C(=O)OC)c1ccccc1CON=C(C)c1cccc(C(F)(F)F)c1` [(C.4), trifloxystrobin], the “Efficacy in % found” value (Septoria tritici; Table G2, 21 days after inoculation, 20 ppm a.i.) is reported as 75%, the “Efficacy in % found” value (Alternaria solani; [12]) is reported as 30% and the “Efficacy in % found” value (Alternaria solani; [8]) is reported as 73%. For the same compound, the “Efficacy in % found” value [1, 9] was 11%, the “Efficacy in % found” value (Leptosphaeria nodorum; 40 ppm a.i.) was 14% and the “Efficacy in % found” value (Phakopsora pachyrhizi; [11]) was 0%.

With `CCN(C)/C=N/c1cc(C)c(Oc2ccccc2)cc1C` [(I-d), N′-(2,5-dimethyl-4-phenoxyphenyl)-N-ethyl-N-methylimidoformamide] the “Efficacy in % found” value (Septoria tritici; [6]) was 14%, the “Efficacy in % found” value (Septoria tritici; Table G1, 21 days after inoculation, 40 ppm a.i.) was 14% and the “Efficacy in % found” value (Septoria tritici; [2]) was 0%. For the same compound, the “Efficacy in % found” value (Septoria tritici; Table G2, 21 days after inoculation, 80 ppm a.i.) was 0%, the “Efficacy in % found” value (Pyrenophora teres; 80 ppm a.i.) was 29% and the “Efficacy in % found” value (Alternaria solani; Table A1, 3 days after inoculation, 0.5 ppm a.i.) was 8%. For the same compound, the “Efficacy in % found” value (Alternaria solani; [12]) was 15%, the “Efficacy in % found” value (Alternaria solani; Table A2, 3 days after inoculation, 0.1 ppm a.i.) was 0% and the “Efficacy in % found” value (Alternaria solani; Table A2, 3 days after inoculation, 0.2 ppm a.i.) was 0%. The “Efficacy in % found” value [1, 3] was 33%, the “Efficacy in % found” value [1, 9] was 0% and the “Efficacy in % found” value ([1]; Table B2, 7 days after inoculation, 20 ppm a.i.) was 0%. For the same compound, the “Efficacy in % found” value [1, 10] was 0%, the “Efficacy in % found” value ([1]; Table B2, 7 days after inoculation, 80 ppm a.i.) was 22% and the “Efficacy in % found” value (Puccinia triticina; 40 ppm a.i.) was 57%. For the same compound, the “Efficacy in % found” value (Leptosphaeria nodorum; 80 ppm a.i.) was 29%, the “Efficacy in % found” value (Phakopsora pachyrhizi; Table D1, 7 days after inoculation, 0.05 ppm a.i.) was 0% and the “Efficacy in % found” value (Phakopsora pachyrhizi; [13]) was 23%. For the same compound, the “Efficacy in % found” value (Phakopsora pachyrhizi; [14]) was 86%, the “Efficacy in % found” value (Phakopsora pachyrhizi; Table D2, 7 days after inoculation, 0.05 ppm a.i.) was 0% and the “Efficacy in % found” value (Phakopsora pachyrhizi; Table D2, 7 days after inoculation, 0.1 ppm a.i.) was 0%. The “Efficacy in % found” value (Phakopsora pachyrhizi; Table D2, 7 days after inoculation, 0.2 ppm a.i.) was 23%, the “Efficacy in % found” value (Phakopsora pachyrhizi; Table D3, 7 days after inoculation, 0.05 ppm a.i.) was 0% and the “Efficacy in % found” value (Phakopsora pachyrhizi; Table D3, 7 days after inoculation, 0.1 ppm a.i.) was 0%.
